Test results: the NIST ThermoML archive (doi:10.1016/j.fluid.2014.05.031)
Several values for one entry are separate records, joined by “and”; a condition that tells them apart may be missing. Equal values may be shown once.

Assay: excess molar enthalpy (molar enthalpy of mixing); xn = mol fraction of the nth substance listed
Settings: Liquid, Flow calorimetry

CC(=O)O [acetic acid] + CCOC(C)=O
323.15 K, 1548 kPa
Settings	excess molar enthalpy [kcal/mol]
x2 = 0.0148	-0.00177
x2 = 0.03	-0.00354
x2 = 0.0613	-0.00636
x2 = 0.1108	-0.00925
x2 = 0.1637	-0.0104
x2 = 0.2403	-0.00942
x2 = 0.3246	-0.00631
x2 = 0.4179	-0.00131
x2 = 0.5217	0.00523
x2 = 0.6379	0.0129
x2 = 0.7347	0.0174
x2 = 0.8409	0.0188
x2 = 0.9178	0.0152
x2 = 0.9582	0.0105

CCOC(C)=O [ethyl acetate] + O
353.15 K, 1272 kPa
Settings	excess molar enthalpy
x1 = 0.0096	0.005 kcal/mol
x1 = 0.0201	0.0107 kcal/mol
x1 = 0.0441	0.0219 kcal/mol
x1 = 0.058	0.0284 kcal/mol
x1 = 0.0733	0.0356 kcal/mol
x1 = 0.0905	0.0435 kcal/mol and 0.0437 kcal/mol
x1 = 0.1096	0.0526 kcal/mol
x1 = 0.1313	0.0631 kcal/mol
x1 = 0.1559	0.0743 kcal/mol
x1 = 0.1842	0.087 kcal/mol
x1 = 0.2169	0.103 kcal/mol
x1 = 0.2554	0.121 kcal/mol
x1 = 0.3012	0.142 kcal/mol
x1 = 0.3565	0.168 kcal/mol
x1 = 0.4249	0.2 kcal/mol
x1 = 0.5114	0.24 kcal/mol
x1 = 0.5639	0.264 kcal/mol
x1 = 0.6244	0.293 kcal/mol
x1 = 0.6949	0.324 kcal/mol
x1 = 0.8258	0.287 kcal/mol
x1 = 0.8781	0.225 kcal/mol
x1 = 0.9359	0.141 kcal/mol

CC(=O)O [acetic acid] + CCO
323.15 K, 1548 kPa
Settings	excess molar enthalpy [kcal/mol]
x1 = 0.0247	0.0108
x1 = 0.0493	0.0202
x1 = 0.0987	0.0347
x1 = 0.1729	0.0468
x1 = 0.2473	0.0514
x1 = 0.3467	0.0507
x1 = 0.4464	0.0435
x1 = 0.5464	0.0354
x1 = 0.6467	0.0265
x1 = 0.7473	0.0192
x1 = 0.8229	0.0145
x1 = 0.8987	0.0093
x1 = 0.9493	0.00504
x1 = 0.9746	0.0028

CCO [ethanol] + O
Settings	excess molar enthalpy [kcal/mol]
333.15 K, 1824 kPa, x1 = 0.0079	-0.00954
333.15 K, 1824 kPa, x1 = 0.016	-0.019
333.15 K, 1824 kPa, x1 = 0.0333	-0.037
333.15 K, 1824 kPa, x1 = 0.0519	-0.0519
333.15 K, 1824 kPa, x1 = 0.0719	-0.0636
333.15 K, 1824 kPa, x1 = 0.0936	-0.071
333.15 K, 1824 kPa, x1 = 0.1172	-0.0736
333.15 K, 1824 kPa, x1 = 0.143	-0.0731
333.15 K, 1824 kPa, x1 = 0.1712	-0.0688
333.15 K, 1824 kPa, x1 = 0.2023	-0.0619
333.15 K, 1824 kPa, x1 = 0.2366	-0.0552
333.15 K, 1824 kPa, x1 = 0.2747	-0.0454
333.15 K, 1824 kPa, x1 = 0.3173	-0.0351
333.15 K, 1824 kPa, x1 = 0.3653	-0.0241
333.15 K, 1824 kPa, x1 = 0.4196	-0.0125
333.15 K, 1824 kPa, x1 = 0.4818	-0.00174
333.15 K, 1824 kPa, x1 = 0.5535	0.00655
333.15 K, 1824 kPa, x1 = 0.6372	0.00999
333.15 K, 1824 kPa, x1 = 0.7361	0.00746
333.15 K, 1824 kPa, x1 = 0.8548	0.000143
333.15 K, 1824 kPa, x1 = 0.9236	-0.0037
333.15 K, 1824 kPa, x1 = 0.9608	-0.00289
363.15 K, 1203 kPa, x1 = 0.0079	-0.00268
363.15 K, 1203 kPa, x1 = 0.016	-0.00562
363.15 K, 1203 kPa, x1 = 0.0333	-0.0111
363.15 K, 1203 kPa, x1 = 0.0518	-0.0141
363.15 K, 1203 kPa, x1 = 0.0719	-0.014
363.15 K, 1203 kPa, x1 = 0.0936	-0.0108
363.15 K, 1203 kPa, x1 = 0.1172	-0.00483
363.15 K, 1203 kPa, x1 = 0.143	0.00375
363.15 K, 1203 kPa, x1 = 0.1712	0.0131
363.15 K, 1203 kPa, x1 = 0.2022	0.0237
363.15 K, 1203 kPa, x1 = 0.2365	0.0344
363.15 K, 1203 kPa, x1 = 0.2746	0.0457
363.15 K, 1203 kPa, x1 = 0.3173	0.0576
363.15 K, 1203 kPa, x1 = 0.3652	0.0688
363.15 K, 1203 kPa, x1 = 0.4196	0.0793
363.15 K, 1203 kPa, x1 = 0.4817	0.0858
363.15 K, 1203 kPa, x1 = 0.5534	0.0875
363.15 K, 1203 kPa, x1 = 0.6371	0.0813
363.15 K, 1203 kPa, x1 = 0.736	0.0641
363.15 K, 1203 kPa, x1 = 0.8548	0.0351
363.15 K, 1203 kPa, x1 = 0.9236	0.018
383.15 K, 1500 kPa, x1 = 0.0333	0.00287
383.15 K, 1500 kPa, x1 = 0.0719	0.0147
383.15 K, 1500 kPa, x1 = 0.1172	0.0339
383.15 K, 1500 kPa, x1 = 0.1712	0.0588
383.15 K, 1500 kPa, x1 = 0.2365	0.0858
383.15 K, 1500 kPa, x1 = 0.3173	0.112
383.15 K, 1500 kPa, x1 = 0.4196	0.132
383.15 K, 1500 kPa, x1 = 0.5534	0.138
383.15 K, 1500 kPa, x1 = 0.6371	0.13
383.15 K, 1500 kPa, x1 = 0.736	0.106
383.15 K, 1500 kPa, x1 = 0.7926	0.0887
383.15 K, 1500 kPa, x1 = 0.8548	0.0645
383.15 K, 1500 kPa, x1 = 0.9236	0.0349

CCOC(C)=O [ethyl acetate] + CCO
Settings	excess molar enthalpy [kcal/mol]
363.15 K, 1548 kPa, x1 = 0.0151	0.0233
363.15 K, 1548 kPa, x1 = 0.0305	0.0473
363.15 K, 1548 kPa, x1 = 0.0624	0.0937
363.15 K, 1548 kPa, x1 = 0.0956	0.138
363.15 K, 1548 kPa, x1 = 0.1302	0.1809
363.15 K, 1548 kPa, x1 = 0.1664	0.2213
363.15 K, 1548 kPa, x1 = 0.2042	0.2588
363.15 K, 1548 kPa, x1 = 0.2438	0.2935
363.15 K, 1548 kPa, x1 = 0.2853	0.3284
363.15 K, 1548 kPa, x1 = 0.3288	0.3559
363.15 K, 1548 kPa, x1 = 0.3745	0.3781
363.15 K, 1548 kPa, x1 = 0.4226	0.3984
363.15 K, 1548 kPa, x1 = 0.4732	0.4104
363.15 K, 1548 kPa, x1 = 0.5265	0.4087
363.15 K, 1548 kPa, x1 = 0.5828	0.4039
363.15 K, 1548 kPa, x1 = 0.6424	0.3867
363.15 K, 1548 kPa, x1 = 0.7054	0.3552
363.15 K, 1548 kPa, x1 = 0.7724	0.305
363.15 K, 1548 kPa, x1 = 0.8435	0.2323
363.15 K, 1548 kPa, x1 = 0.9192	0.133
363.15 K, 1548 kPa, x1 = 0.9589	0.0698
413.15 K, 1307 kPa, x1 = 0.0151	0.0258
413.15 K, 1307 kPa, x1 = 0.0306	0.0531
413.15 K, 1307 kPa, x1 = 0.0624	0.105
413.15 K, 1307 kPa, x1 = 0.0956	0.154
413.15 K, 1307 kPa, x1 = 0.1302	0.201
413.15 K, 1307 kPa, x1 = 0.1664	0.2457
413.15 K, 1307 kPa, x1 = 0.2042	0.2863
413.15 K, 1307 kPa, x1 = 0.2438	0.325
413.15 K, 1307 kPa, x1 = 0.2853	0.359
413.15 K, 1307 kPa, x1 = 0.3288	0.3879
413.15 K, 1307 kPa, x1 = 0.3745	0.4123
413.15 K, 1307 kPa, x1 = 0.4226	0.4238
413.15 K, 1307 kPa, x1 = 0.4732	0.4338
413.15 K, 1307 kPa, x1 = 0.5265	0.4331
413.15 K, 1307 kPa, x1 = 0.5829	0.4218
413.15 K, 1307 kPa, x1 = 0.6424	0.3975
413.15 K, 1307 kPa, x1 = 0.7055	0.359
413.15 K, 1307 kPa, x1 = 0.7724	0.3014
413.15 K, 1307 kPa, x1 = 0.8435	0.2244
413.15 K, 1307 kPa, x1 = 0.9192	0.125
413.15 K, 1307 kPa, x1 = 0.9589	0.066
